According to patent US6919330B2, “Formulations of drugs” (Laxdale Limited, priority 2002, dated 2005):

Experiment: Plasma and red cell selenium levels in healthy controls and patient groups on drugs
Type: in vivo, human
Conditions: schizophrenic patients on the drug, compared with the other groups
Source text: Here the selenium levels are expressed in μmol/litre and are shown as means plus or minus the Standard Error of the Mean (SEM)

selenium levels: exceptionally low
Structure (SMILES): CN1CCN(C2=Nc3cc(Cl)ccc3Nc3ccccc32)CC1 [clozapine]
